The values that follow are results of earlier work, collected in patent US7074832B2, “Compositions containing antimicrobials and urea for the treatment of dermatological disorders and methods for their use” (Bradley Pharmaceuticals, Inc., priority 2001, dated 2006).

Structures are written as SMILES. Values after ≈ are worked out from the molar mass of the structure shown.

The subject of one data set is cyclooxygenase. The settings on record: qualitative statement in the description.

Consider `Cc1ncc([N+](=O)[O-])n1CCO` [Metronidazole, 2-methyl-5-nitro-1H-imidazole-1-ethanol], for which the solubility in alcohol entry (alcohol) was “slightly soluble”. In addition, the solubility in water (water, 20° C.) is 10 mg/mL (≈ 58.4 mM).

In the case of `Cc1c(C)c2c(c(C)c1O)CC[C@@](C)(CCC[C@H](C)CCC[C@H](C)CCCC(C)C)O2` [alpha tocopherol], the cyclooxygenase activity inhibition result in the data set on cyclooxygenase is listed as “not”.

As to `Cc1c(O)cc2c(c1C)O[C@](C)(CCC[C@H](C)CCC[C@H](C)CCCC(C)C)CC2` [gamma tocopherol], the cyclooxygenase activity inhibition result with cyclooxygenase is on record as “inhibit cyclooxygenase activity”.

For `Cc1c(O)cc2c(c1C)OC(C)(CCC(=O)O)CC2` (stereo not drawn) [gamma-CEHC, 2,7,8-trimethyl-2-(beta-carboxyethyl)-6-hydroxychroman], in the data set with cyclooxygenase, the cyclooxygenase activity inhibition entry is listed as “inhibit cyclooxygenase activity”.
